Like-named read-outs stand apart in the source and are kept apart here.
Assays:
HIV-1 = experiment: Cytopathic Effect (CPE) Inhibition Assay (XTT dye reduction); type: cell-based
Procedure: T-cell lines, CEM-SS, and MT-2, and viruses HIV-1 RF and HIV-1 NL4–3 (pNL4–3) were obtained from the National Institutes of Health (AIDS Research and Reference Reagent Program, Bethesda, Md.).
The ability of compounds to protect cells against HIV infection was measured by the […] dye reduction method, essentially as described (See Pauwels, R. Balzarini, J. Baba, M. Snoeck, R. Schols, D. Herdewijn, P. Desmyter, J. and De Clercq, E. 1988, “Rapid and automated tetrazolium-based colorimetric assay for the detection of anti-HIV compounds,”. J Virol Methods., 20: 309–321 and Weislow, O. S. Kiser, R. Fine, D. L. Bader, J. Shoemaker, R. H. and Boyd, M. R. 1989. “New soluble-formazan assay for HIV-1 cytopathic effects: application to high-flux screening of synthetic and natural products for AIDS-antiviral activity”. J. Natl. Cancer Inst. 81:577–586). Subject cells were infected with test virus at an moi of 0.025 to 0.819 or mock infected with medium only and added at 2×10^4 cells per well into 96 well plates containing half-log dilutions of test compounds. Six days later, 50 μl of XTT (1 mg/ml XTT tetrazolium, […] phenazine methosulfate) was added to the wells and the plate was reincubated for four hours. Viability, as determined by the amount of XTT formazan produced, was quantified spectrophotometrically by absorbance at 450 nm. Data from CPE assays were expressed as the percent of formazan produced in compound-treated cells compared to formazan produced in wells of uninfected, compound-free cells. The fifty percent effective concentration (EC50) was calculated as the concentration of compound that effected an increase in the percentage of formazan production in infected, compound-treated cells to 50% of that produced by uninfected, compound-free cells. The 50% cytotoxicity concentration (CC50) was calculated as the concentration of compound that decreased the percentage of formazan produced in uninfected, compound-treated cells to 50% of that produced in uninfected, compound-free cells. The therapeutic index was calculated by dividing the cytotoxicity (CC50) by the antiviral activity (EC50).

HIV-1 protease (Q7S) = molecular target: T1, HIV-1 protease (Q7S) (Human immunodeficiency virus type 1 group M subtype B, UniProt P04585, Q495S); experiment: HIV-1 Protease RET Assay; type: biochemical
T1 construct: made in house
Outline: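 Ki values came from a RET assay on refolded Q7S protease (2 nM active dimer) cleaving RE(EDANS)SQNYPIVQK(DABCYL)R at 5 μM, read at ex 340/em 490 nm. Reactions ran 12 min at 37 C in 0.1M sodium acetate pH 4.8, 1M NaCl, 5 mM DTT, 10% DMSO; curves were fit with the Morrison tight-binding equation.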

[1] = Human immunodeficiency virus 1, 144 h, read-out: Ave CPE EC50 (mM)
[2] = Ave. Ki (nM), RET assay, Q7S enzyme, pH 4.8, 37 C
[3] = Ki, table of drawn compounds, unit inferred

Compound	EC50 (HIV-1; [1]) [nM]	Ki (HIV-1 protease (Q7S); [2]) [nM]	EC50 (HIV-1; Human immunodeficiency virus 1) [nM]	Ki (HIV-1 protease (Q7S); [3]) [nM]
COc1ccc(C(=O)NC(Cc2ccccc2)C(O)C(=O)N2CSC(C)(C)[C@H]2C(=O)NCc2ccccc2C)c(C)c1 (stereo in doubt) [Example B29, 3-[2-Hydroxy-3-(4-methoxy-2-methyl-benzoylamino)-4-phenyl-butyryl]-5,5-dimethyl-thiazolidine-4-carboxylic acid 2-methyl-benzylamide]	1260	0.12	–	–
CCCNC(=O)[C@H]1N(C(=O)[C@@H](O)[C@H](Cc2ccccc2)NC(=O)c2cccc(F)c2C)CSC1(C)C [Example B31, (R)-3-((2S,3S)-3-{[1-(3-Fluoro-2-methyl-phenyl)-methanoyl]-amino}-2-hydroxy-4-phenyl-butanoyl)-5,5-dimethyl-thiazolidine-4-carboxylic acid propylamide]	1320	1.5	–	–
Cc1ncc(C(=O)N[C@@H](Cc2ccccc2)[C@H](O)C(=O)N2CSC(C)(C)[C@H]2C(=O)NCc2ccccc2C)c(=O)[nH]1	–	–	≥ 10000	209
COCCNC(=O)[C@H]1N(C(=O)[C@@H](O)[C@H](Cc2ccccc2)NC(=O)c2cccc(O)c2C)CSC1(C)C	–	–	158	0.24
Cc1c(O)cccc1C(=O)N[C@@H](Cc1ccccc1)[C@H](O)C(=O)N1CSC(C)(C)[C@H]1C(=O)NCc1cc(F)cc(F)c1	–	–	144	0.36
Cc1ccccc1CNC(=O)[C@@H]1[C@H](C)OCN1C(=O)[C@@H](O)[C@H](Cc1ccccc1)NC(=O)c1cccc(O)c1C [Example C8, (4S,5S)-3-((2S,3S)-2-Hydroxy-3-{[1-(3-hydroxy-2-methyl-phenyl)-methanoyl]-amino}-4-phenyl-butanoyl)-5-methyl-oxazolidine-4-carboxylic acid 2-methyl-benzylamide]	447	0.26	–	–
Cc1ccccc1CNC(=O)[C@H]1N(C(=O)[C@@H](O)[C@H](Cc2ccccc2)NC(=O)c2sc(N)nc2C)CSC1(C)C [Example B15, 2-Amino-4-methyl-thiazole-5-carboxylic acid {(S)-1-benzyl-3-[5,5-dimethyl-4-(2-methyl-benzylcarbamoyl)-thiazolidin-3-yl]-2-hydroxy-3-oxo-propyl}-amide]	1090	2	–	–
C=CCN(C)C(=O)[C@H]1N(C(=O)[C@@H](O)[C@H](Cc2ccccc2)NC(=O)c2ccno2)CSC1(C)C	–	–	4950	24.6
Cc1c(O)cccc1C(=O)N[C@@H](Cc1ccccc1)[C@H](O)C(=O)N1CSC(C)(C)[C@H]1C(=O)NCc1ccc(S(C)(=O)=O)cc1 [Example A13, 3-[2-Hydroxy-3-(3-hydroxy-2-methyl-benzoylamino)-4-phenyl-butyryl]-5,5-dimethyl-thiazolidine-4-carboxylic acid 4-methanesulfonyl-benzamide]	> 1000	44.1	–	–
COc1ccc(CNC(=O)[C@H]2N(C(=O)[C@@H](O)[C@H](Cc3ccccc3)NC(=O)c3cccc(O)c3C)CSC2(C)C)cc1 [Example A6, (R)-3-((2S,3S)-2-Hydroxy-3-{[1-(3-hydroxy-2-methyl-phenyl)-methanoyl]-amino}-4-phenyl-butanoyl)-5,5-dimethyl-thiazolidine-4-carboxylic acid 4-methoxy-benzylamide]	36	0.22	–	–
Cn1cccc1C(=O)N[C@@H](Cc1ccccc1)[C@H](O)C(=O)N1CSC(C)(C)[C@H]1C(=O)NCc1c(F)cccc1F [Example B24, 3-{2-Hydroxy-3-[(1-methyl-1H-pyrrole-2-carbonyl)-amino]-4-phenyl-butyryl}-5,5-dimethyl-thiazolidine-4-carboxylic acid 2,6-difluoro-benzylamide]	2320	5.5	–	–
Cc1c(O)cccc1C(=O)N[C@@H](Cc1ccccc1)[C@H](O)C(=O)N1CSC(C)(C)[C@H]1C(=O)NCc1ccc(OC(F)(F)F)cc1 [Example A47, (R)-3-((2S,3S)-2-Hydroxy-3-{[1-(3-hydroxy-2-methyl-phenyl)-methanoyl]-amino}-4-phenyl-butanoyl)-5,5-dimethyl-thiazolidine-4-carboxylic acid 4-trifluoromethoxy-benzylamide]	1810	2.3	–	–
C#CCNC(=O)[C@H]1N(C(=O)[C@@H](O)[C@H](Cc2ccccc2)NC(=O)[C@@H]2CCCO2)CSC1(C)C	–	–	3740	16.8
Cc1ccsc1CNC(=O)[C@H]1N(C(=O)[C@@H](O)[C@H](Cc2ccccc2)NC(=O)c2cccc(O)c2C)CSC1(C)C [Example A8]	36	0.23	–	–
Cc1ccccc1CNC(=O)[C@H]1N(C(=O)[C@@H](O)[C@H](Cc2ccccc2)NC(=O)c2cccn2C)CSC1(C)C [Example B12, (R)-3-{(2S,3S)-2-Hydroxy-3-[(1-methyl-1H-pyrrole-2-carbonyl)-amino]-4-phenyl-butyryl}-5,5-dimethyl-thiazolidine-4-carboxylic acid 2-methyl-benzylamide]	1400	0.45	–	–
Cc1c(O)cccc1C(=O)N[C@@H](Cc1ccccc1)[C@H](O)C(=O)N1CSC(C)(C)[C@H]1C(=O)NCc1ccc(N(C)C)cc1 [Example A15, (R)-3-((2S,3S)-2-Hydroxy-3-{[1-(3-hydroxy-2-methyl-phenyl)-methanoyl]-amino}-4-phenyl-butanoyl)-5,5-dimethyl-thiazolidine-4-carboxylic acid 4-dimethylamino-benzylamide]	130	10.9	–	–
Cc1c(O)cccc1C(=O)N[C@@H](Cc1ccccc1)[C@H](O)C(=O)N1CSC(C)(C)C1C(=O)NCCC(C)C (stereo partly drawn)	–	–	72	≤ 0.1
Cc1ccccc1CNC(=O)[C@H]1N(C(=O)[C@@H](O)[C@H](Cc2ccccc2)NC(=O)c2cccc(O)n2)CSC1(C)C [Example B48]	> 3200	12	–	–
Cc1c(O)cccc1C(=O)N[C@@H](Cc1ccccc1)[C@H](O)C(=O)N1CSC(C)(C)[C@H]1C(=O)NCc1ccc(F)cc1C(F)(F)F [Example A12]	1090	1.7	–	–
Cc1c(O)cccc1C(=O)N[C@@H](Cc1ccccc1)[C@H](O)C(=O)N1CSC(C)(C)[C@H]1C(=O)NCc1cccc(CN(C)C)c1	–	–	3200	10.5
Cc1ccccc1CNC(=O)[C@H]1N(C(=O)[C@@H](O)[C@H](Cc2ccccc2)NC(=O)c2cnc(C(F)(F)F)[nH]c2=O)CSC1(C)C	–	–	≥ 10000	1700
Cc1c(O)cccc1C(=O)N[C@@H](Cc1ccccc1)[C@H](O)C(=O)N1CSC(C)(C)[C@H]1C(=O)NCc1cc(F)ccc1C(F)(F)F [Example A5, 3-(2-Hydroxy-3-{[1-(3-hydroxy-2-methyl-phenyl)-methyanoyl]amino}-4-phenyl-butanoyl)-5,5-dimethyl-thiazolidine-4-carboxlic acid fluoro trifluoromethyl-benzylamide]	433	2	–	–
Cc1c(O)cccc1C(=O)N[C@@H](Cc1ccccc1)[C@H](O)C(=O)N1CSC(C)(C)[C@H]1C(=O)NC(C)(C)C#N [Example A41, (R)-3-((2S,3S)-2-Hydroxy-3-{[1-(3-hydroxy-2-methyl-phenyl)-methanoyl]-amino}-4-phenyl-butanoyl)-5,5-dimethyl-thiazolidine-4-carboxylic acid (1-cyano-1,1-dimethyl-methyl)-amide]	527	1.6	–	–
Cc1ccccc1CNC(=O)C1N(C(=O)[C@@H](O)[C@H](Cc2ccccc2)NC(=O)c2cccnc2C)CSC1(C)C (stereo partly drawn) [Example B44, N-{(1S,2S)-1-Benzyl-3-[5,5-dimethyl-4-(2-methyl-benzylcarbamoyl)-thiazolidin-3-yl]-2-hydroxy-3-oxo-propyl}-2-methyl-nicotinamide]	629	0.76	–	–
Cc1ccccc1CNC(=O)[C@H]1N(C(=O)[C@@H](O)[C@H](Cc2ccccc2)NC(=O)c2csc(N)n2)CSC1(C)C	–	–	1380	2.3
C=C(C)CNC(=O)[C@H]1N(C(=O)[C@@H](O)[C@H](Cc2ccccc2)NC(=O)c2cccc(O)c2C)CSC1(C)C [Example A28, (R)-3-((2S,3S)-2-Hydroxy-3-{[1-(3-hydroxy-2-methyl-phenyl)-methanoyl]-amino}-4-phenyl-butanoyl)-5,5-dimethyl-thiazolidine-4-carboxylic acid (2-methyl-allyl)-amide]	41	< 0.1	–	–
Cc1c(O)cccc1C(=O)N[C@@H](Cc1ccccc1)[C@H](O)C(=O)N1CSC(C)(C)[C@H]1C(=O)NCc1ccc(C(F)(F)F)cc1F	–	–	1400	11.1

From patent US7169932B2 (priority 2001, dated 2007)
